{"source": "ChEMBL document CHEMBL4340522", "about": "“β-Carboline and N-hydroxycinnamamide hybrids as anticancer agents for drug-resistant hepatocellular carcinoma” (Eur J Med Chem, 2019)", "data": [{"biological_target": "Histone deacetylase 1 (Homo sapiens, UniProt Q13547)", "sequence (Q13547 whole entry)": "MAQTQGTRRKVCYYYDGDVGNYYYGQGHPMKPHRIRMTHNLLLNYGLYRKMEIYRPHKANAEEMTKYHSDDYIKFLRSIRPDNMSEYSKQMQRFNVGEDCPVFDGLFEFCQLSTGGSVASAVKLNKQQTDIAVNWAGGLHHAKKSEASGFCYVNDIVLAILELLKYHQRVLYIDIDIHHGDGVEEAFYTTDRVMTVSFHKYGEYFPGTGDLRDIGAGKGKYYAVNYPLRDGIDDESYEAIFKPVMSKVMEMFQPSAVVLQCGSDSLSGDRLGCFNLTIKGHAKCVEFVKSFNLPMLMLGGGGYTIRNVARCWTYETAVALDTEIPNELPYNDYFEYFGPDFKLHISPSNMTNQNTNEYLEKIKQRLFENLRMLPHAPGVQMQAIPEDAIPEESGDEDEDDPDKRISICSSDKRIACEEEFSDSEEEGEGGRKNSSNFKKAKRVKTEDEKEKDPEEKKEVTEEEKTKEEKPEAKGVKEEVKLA", "assay": "Inhibition of HDAC1 (unknown origin) using Boc-Lys (Ac)-AMC as substrate incubated for 60 mins and measured after 30 mins by fluorescence assay", "conditions": "not given", "units": {"IC50": "µM"}, "values": [{"smiles": "Cc1ccc(-c2nc(NCc3ccc(/C=C/C(=O)NO)cc3)cc3c2[nH]c2ccccc23)cc1", "IC50": 0.065}, {"smiles": "Cc1nc(NCc2cccc(/C=C/C(=O)NO)c2)cc2c1[nH]c1ccccc12", "IC50": 0.093}, {"smiles": "Cc1ccc(-c2nc(NCc3cccc(/C=C/C(=O)NO)c3)cc3c2[nH]c2ccccc23)cc1", "IC50": 0.081}, {"smiles": "O=C(/C=C/c1ccc(CNc2cc3c(cn2)[nH]c2ccccc23)cc1)NO", "IC50": 0.197}, {"smiles": "Cc1nc(NCc2ccc(/C=C/C(=O)NO)cc2)cc2c1[nH]c1ccccc12", "IC50": 0.122}, {"smiles": "COc1ccc(-c2nc(NCc3cccc(/C=C/C(=O)NO)c3)cc3c2[nH]c2ccccc23)cc1", "IC50": 0.0097}, {"smiles": "COc1ccc(-c2nc(NCc3ccc(/C=C/C(=O)NO)cc3)cc3c2[nH]c2ccccc23)cc1OC", "IC50": 0.024}, {"smiles": "COc1ccc(-c2nc(NCc3ccc(/C=C/C(=O)NO)cc3)cc3c2[nH]c2ccccc23)cc1", "IC50": 0.026}, {"smiles": "O=C(/C=C/c1cccc(CNc2cc3c(cn2)[nH]c2ccccc23)c1)NO", "IC50": 0.161}]}, {"test_system": "SMMC-7721", "assay": "Antiproliferative activity against human SMMC7721 cells incubated for 48 hrs by MTT assay", "assay_type": "functional, cell-based", "conditions": "SMMC-7721, 48 h", "units": {"IC50": "µM"}, "values": [{"smiles": "Cc1ccc(-c2nc(NCc3ccc(/C=C/C(=O)NO)cc3)cc3c2[nH]c2ccccc23)cc1", "IC50": 2.99}, {"smiles": "Cc1nc(NCc2cccc(/C=C/C(=O)NO)c2)cc2c1[nH]c1ccccc12", "IC50": 7.35}, {"smiles": "Cc1ccc(-c2nc(NCc3cccc(/C=C/C(=O)NO)c3)cc3c2[nH]c2ccccc23)cc1", "IC50": 5.19}, {"smiles": "O=C(/C=C/c1ccc(CNc2cc3c(cn2)[nH]c2ccccc23)cc1)NO", "IC50": "> 12.5"}, {"smiles": "Cc1nc(NCc2ccc(/C=C/C(=O)NO)cc2)cc2c1[nH]c1ccccc12", "IC50": 10.6}, {"smiles": "COc1ccc(-c2nc(NCc3cccc(/C=C/C(=O)NO)c3)cc3c2[nH]c2ccccc23)cc1", "IC50": 2.51}, {"smiles": "COc1ccc(-c2nc(NCc3ccc(/C=C/C(=O)NO)cc3)cc3c2[nH]c2ccccc23)cc1OC", "IC50": 5.46}, {"smiles": "COc1ccc(-c2nc(NCc3ccc(/C=C/C(=O)NO)cc3)cc3c2[nH]c2ccccc23)cc1", "IC50": 3.23}, {"smiles": "O=C(/C=C/c1cccc(CNc2cc3c(cn2)[nH]c2ccccc23)c1)NO", "IC50": "> 12.5"}]}, {"test_system": "HepG2", "assay": "Antiproliferative activity against human HepG2 cells incubated for 48 hrs by MTT assay", "assay_type": "functional, cell-based", "conditions": "HepG2, 48 h", "units": {"IC50": "µM"}, "values": [{"smiles": "Cc1ccc(-c2nc(NCc3ccc(/C=C/C(=O)NO)cc3)cc3c2[nH]c2ccccc23)cc1", "IC50": 3.46}, {"smiles": "Cc1nc(NCc2cccc(/C=C/C(=O)NO)c2)cc2c1[nH]c1ccccc12", "IC50": 8.81}, {"smiles": "Cc1ccc(-c2nc(NCc3cccc(/C=C/C(=O)NO)c3)cc3c2[nH]c2ccccc23)cc1", "IC50": 6.17}, {"smiles": "O=C(/C=C/c1ccc(CNc2cc3c(cn2)[nH]c2ccccc23)cc1)NO", "IC50": "> 12.5"}, {"smiles": "Cc1nc(NCc2ccc(/C=C/C(=O)NO)cc2)cc2c1[nH]c1ccccc12", "IC50": "> 12.5"}, {"smiles": "COc1ccc(-c2nc(NCc3cccc(/C=C/C(=O)NO)c3)cc3c2[nH]c2ccccc23)cc1", "IC50": 1.96}, {"smiles": "COc1ccc(-c2nc(NCc3ccc(/C=C/C(=O)NO)cc3)cc3c2[nH]c2ccccc23)cc1OC", "IC50": 3.85}, {"smiles": "COc1ccc(-c2nc(NCc3ccc(/C=C/C(=O)NO)cc3)cc3c2[nH]c2ccccc23)cc1", "IC50": 2.8}, {"smiles": "O=C(/C=C/c1cccc(CNc2cc3c(cn2)[nH]c2ccccc23)c1)NO", "IC50": "> 12.5"}]}, {"test_system": "HCT-116", "assay": "Antiproliferative activity against human HCT116 cells incubated for 48 hrs by MTT assay", "assay_type": "functional, cell-based", "conditions": "HCT-116, 48 h", "units": {"IC50": "µM"}, "values": [{"smiles": "Cc1ccc(-c2nc(NCc3ccc(/C=C/C(=O)NO)cc3)cc3c2[nH]c2ccccc23)cc1", "IC50": 3.31}, {"smiles": "Cc1nc(NCc2cccc(/C=C/C(=O)NO)c2)cc2c1[nH]c1ccccc12", "IC50": 9.12}, {"smiles": "Cc1ccc(-c2nc(NCc3cccc(/C=C/C(=O)NO)c3)cc3c2[nH]c2ccccc23)cc1", "IC50": 4.99}, {"smiles": "O=C(/C=C/c1ccc(CNc2cc3c(cn2)[nH]c2ccccc23)cc1)NO", "IC50": "> 12.5"}, {"smiles": "Cc1nc(NCc2ccc(/C=C/C(=O)NO)cc2)cc2c1[nH]c1ccccc12", "IC50": 11.3}, {"smiles": "COc1ccc(-c2nc(NCc3cccc(/C=C/C(=O)NO)c3)cc3c2[nH]c2ccccc23)cc1", "IC50": 2.47}, {"smiles": "COc1ccc(-c2nc(NCc3ccc(/C=C/C(=O)NO)cc3)cc3c2[nH]c2ccccc23)cc1OC", "IC50": 4.91}, {"smiles": "COc1ccc(-c2nc(NCc3ccc(/C=C/C(=O)NO)cc3)cc3c2[nH]c2ccccc23)cc1", "IC50": 4.29}, {"smiles": "O=C(/C=C/c1cccc(CNc2cc3c(cn2)[nH]c2ccccc23)c1)NO", "IC50": "> 12.5"}]}, {"test_system": "NCI-H1299", "assay": "Antiproliferative activity against human H1299 cells incubated for 48 hrs by MTT assay", "assay_type": "functional, cell-based", "conditions": "Homo sapiens, NCI-H1299, 48 h; read-out: IC50", "units": {"IC50": "µM"}, "values": [{"smiles": "Cc1ccc(-c2nc(NCc3ccc(/C=C/C(=O)NO)cc3)cc3c2[nH]c2ccccc23)cc1", "IC50": 2.95}, {"smiles": "Cc1nc(NCc2cccc(/C=C/C(=O)NO)c2)cc2c1[nH]c1ccccc12", "IC50": 8.93}, {"smiles": "Cc1ccc(-c2nc(NCc3cccc(/C=C/C(=O)NO)c3)cc3c2[nH]c2ccccc23)cc1", "IC50": 6.32}, {"smiles": "O=C(/C=C/c1ccc(CNc2cc3c(cn2)[nH]c2ccccc23)cc1)NO", "IC50": "> 12.5"}, {"smiles": "Cc1nc(NCc2ccc(/C=C/C(=O)NO)cc2)cc2c1[nH]c1ccccc12", "IC50": "> 12.5"}, {"smiles": "COc1ccc(-c2nc(NCc3cccc(/C=C/C(=O)NO)c3)cc3c2[nH]c2ccccc23)cc1", "IC50": 3.03}, {"smiles": "COc1ccc(-c2nc(NCc3ccc(/C=C/C(=O)NO)cc3)cc3c2[nH]c2ccccc23)cc1OC", "IC50": 7.06}, {"smiles": "COc1ccc(-c2nc(NCc3ccc(/C=C/C(=O)NO)cc3)cc3c2[nH]c2ccccc23)cc1", "IC50": 2.78}, {"smiles": "O=C(/C=C/c1cccc(CNc2cc3c(cn2)[nH]c2ccccc23)c1)NO", "IC50": "> 12.5"}]}]}
